Key:
N2a [1] = assay: Neuroprotective activity against thapsigargin-induced ER stress in mouse Neuro2a cells assessed as cell viability at 10 to 100 ug/ml pre-incubated for 2 hrs followed by thapsigargin addition for 22 hrs by MTT assay; format: functional, cell-based; settings: dose 10-100 µg/ml, time 24.0 hrs
N2a [2] = assay: Neuroprotective activity against tunicamycin-induced ER stress in mouse Neuro2a cells assessed as cell viability at 10 to 100 ug/ml pre-incubated for 2 hrs followed by tunicamycin addition for 22 hrs by MTT assay; format: functional, cell-based; settings: dose 10-100 µg/ml, time 24.0 hrs

Compound	Activity (N2a [1])	Activity (N2a [2])
CCCCCCCCCCCCCCCC(=O)OCc1cc(OC)c2c(c1C=O)OC(/C(C)=C\C(=O)C=C(C)C)C2 (racemic)	Active; Significant Protective Activity	Active; Significant Protective Activity
CCCCCCCCCCCCCCCC(=O)OCc1cc(OC)c(C[C@H]2O[C@]2(C)CC(=O)C=C(C)C)c(O)c1C=O (racemic)	Not active; No Protective Activity	Not active; No Protective Activity
CCCCCCCCCCCCCCCC(=O)OCc1cc(OC)c2c(c1C=O)OC(/C(C)=C/C(=O)C=C(C)C)C2 (racemic)	Active; Significant Protective Activity	Active; Significant Protective Activity
